# According to US12570648B2, “6,7-dihydro-5H-pyrido[2,3-c]pyridazine derivatives and related compounds as Bcl-xL protein inhibitors and pro-apoptotic agents for treating cancer” (LES LABORATOIRES SERVIER, priority 2019, dated 2026):
# Assays:
# MOLT-4 cells = assay: MOLT-4 cell viability using MTT assay; type: cell-based; conditions: Homo sapiens, MOLT-4, 48 h, 48 h exposure
# Description: MTT colorimetric assay is based on the mitochondrial reduction of tetrazolium salt by living cells.
# Cells were cultured at 37° C. in a humidified atmosphere containing 5% CO2. […] At the end of incubation time, 15 μL of MTT solution (5 mg/ml) were added per well and the cells were incubated for another 4 h. […] IC50s were calculated using standard four-parametric curve fitting.
# H146 cells = assay: H146 cell viability using MTT assay; type: cell-based; conditions: Homo sapiens, NCI-H146, 48 h exposure
# Description: MTT colorimetric assay is based on the mitochondrial reduction of tetrazolium salt by living cells. The viable cell number is proportional to the production of formazan salts, which can be read spectrophotometrically at 540 nm.
# MOLT-4 and H146 cells were purchased from ATCC and cultivated in RPMI 1640 supplemented with 10% heat inactivated fetal bovine serum, penicillin (100 IU/ml), streptomycin (100 μg/ml) and L-glutamine (2 mM). Cells were cultured at 37° C. in a humidified atmosphere containing 5% CO2. Cells were seeded in 96 microwell plates (150p per well) and exposed to the compounds for 48 h (3.16 fold serially diluted; 9 concentrations each, triplicates). At the end of incubation time, 15 μL of MTT solution (5 mg/ml) were added per well and the cells were incubated for another 4 h. Then, 100 μL of 10% Sodium Dodecyl Sulfate (SDS)/HCl 10 mM were added per well and the plate was incubated overnight, before measurement of optical density at 540 nm. IC50s were calculated using standard four-parametric curve fitting.
# [1] = target: His-His-(EK)-hsBCLXL(2-197)[N197C] (Homo sapiens (Human), UniProt Q07817, N197C); assay: Fluorescence quenching assay; type: binding; conditions: 1 nM Cy5-labelled protein, 400 nM PUMA peptide, 2 hours at 23° C.; KI determined from IC50
# How it was run: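 Ki values converted from IC50s, measured as fluorescence increase (Ex 620/Em 680 nm) after 2 h at 23° C. Compounds were titrated over 11 points against 1 nM Cy5-BCL-xL and 400 nM quencher-tagged PUMA peptide in pH 7.4 HEPES (10 mM), 150 mM NaCl, 0.05% Tween 20, 5% DMSO.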
# Chain of His-His-(EK)-hsBCLXL(2-197)[N197C] (Q07817 2-197 N197C): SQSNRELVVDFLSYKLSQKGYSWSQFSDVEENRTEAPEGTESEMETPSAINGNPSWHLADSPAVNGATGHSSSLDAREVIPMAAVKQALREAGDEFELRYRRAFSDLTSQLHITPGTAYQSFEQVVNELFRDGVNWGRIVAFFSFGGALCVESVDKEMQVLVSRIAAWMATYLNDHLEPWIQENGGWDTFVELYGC
Structure (SMILES),IC50 (MOLT-4 cells) [nM],IC50 (H146 cells) [µM],Ki [1] [pM]
"Cc1c(Nc2nc3ccccc3s2)nnc2c1CCN2c1nc(C(=O)O)cs1 [Example 11, 2-{3-[(1,3-Benzothiazol-2-yl)amino]-4-methyl-5H,6H,7H-pyrrolo[2,3-c]pyridazin-7-yl}-1,3-thiazole-4-carboxylic acid]",2430,6.36,–
"Cc1c(Nc2nc3ccccc3s2)nnc2c1CCCN2c1nc(C(=O)O)c(CCCOc2ccc(C#CCNCCCO)cc2F)s1 [Example 147, 2-[3-(1,3-benzothiazol-2-ylamino)-4-methyl-6,7-dihydro-5H-pyrido[2,3-c]pyridazin-8-yl]-5-[3-[2-fluoro-4-[3-(3-hydroxypropylamino)prop-1-ynyl]phenoxy]propyl]thiazole-4-carboxylic acid]",0.852,–,4.6
"Cc1c(Nc2nc3ccccc3s2)nnc2c1CCCN2c1ccc(-c2cnn(CC34CC5(C)CC(C)(C3)CC(OCCNCc3ccc(O)cc3)(C5)C4)c2C)c(C(=O)O)n1 [Example 149, 6-[3-(1,3-benzothiazol-2-ylamino)-4-methyl-6,7-dihydro-5H-pyrido[2,3-c]pyridazin-8-yl]-3-[1-[[3-[2-[(4-hydroxyphenyl)methylamino]ethoxy]-5,7-dimethyl-1-adamantyl]methyl]-5-methyl-pyrazol-4-yl]pyridine-2-carboxylic acid]",0.982,–,3.7
"Cc1c(Nc2nc3ccccc3s2)nnc2c1CCCN2c1ccc(-c2cnn(CC34CC5(C)CC(C)(CC(CCCN6CCCC6)(C5)C3)C4)c2C)c(C(=O)O)n1 [Example 166, 6-[3-(1,3-benzothiazol-2-ylamino)-4-methyl-6,7-dihydro-5H-pyrido[2,3-c]pyridazin-8-yl]-3-[1-[[3,5-dimethyl-7-(3-pyrrolidin-1-ylpropyl)-1-adamantyl]methyl]-5-methyl-pyrazol-4-yl]pyridine-2-carboxylic acid]",0.429,–,2.7
"Cc1c(Nc2nc3ccccc3s2)nnc2c1CCCN2c1ccc(-c2cnn(CC34CC5(C)CC(C)(CC(CCCN6CCN(C)CC6)(C5)C3)C4)c2C)c(C(=O)O)n1 [Example 168, 6-[3-(1,3-benzothiazol-2-ylamino)-4-methyl-6,7-dihydro-5H-pyrido[2,3-c]pyridazin-8-yl]-3-[1-[[3,5-dimethyl-7-[3-(4-methylpiperazin-1-yl)propyl]-1-adamantyl]methyl]-5-methyl-pyrazol-4-yl]pyridine-2-carboxylic acid]",0.291,–,2.9
"Cc1c(Nc2nc3ccccc3s2)nnc2c1CCCN2c1ccc(-c2cnn(CC34CC5(C)CC(C)(CC(CCCNCCCO)(C5)C3)C4)c2C)c(C(=O)O)n1 [Example 170, 6-[3-(1,3-benzothiazol-2-ylamino)-4-methyl-6,7-dihydro-5H-pyrido[2,3-c]pyridazin-8-yl]-3-[1-[[3-[3-(3-hydroxypropylamino)propyl]-5,7-dimethyl-1-adamantyl]methyl]-5-methyl-pyrazol-4-yl]pyridine-2-carboxylic acid]",0.787,–,2.7
"Cc1c(Nc2nc3ccccc3s2)nnc2c1CCCN2c1ccc(-c2cnn(CC34CC5(C)CC(C)(CC(CCCNCC[C@H](O)CO)(C5)C3)C4)c2C)c(C(=O)O)n1 [Example 172, 6-[3-(1,3-benzothiazol-2-ylamino)-4-methyl-6,7-dihydro-5H-pyrido[2,3-c]pyridazin-8-yl]-3-[1-[[3-[3-[[(3S)-3,4-dihydroxybutyl]amino]propyl]-5,7-dimethyl-1-adamantyl]methyl]-5-methyl-pyrazol-4-yl]pyridine-2-carboxylic acid]",3.25,–,2
"Cc1c(Nc2nc3cccc(F)c3s2)nnc2c1CCCN2c1ccc(-c2cnn(CC34CC5(C)CC(C)(C3)CC(OCCN3CCCC3)(C5)C4)c2C)c(C(=O)O)n1 [Example 178, 3-[1-[[3,5-dimethyl-7-(2-pyrrolidin-1-ylethoxy)-1-adamantyl]methyl]-5-methyl-pyrazol-4-yl]-6-[3-[(7-fluoro-1,3-benzothiazol-2-yl)amino]-4-methyl-6,7-dihydro-5H-pyrido[2,3-c]pyridazin-8-yl]pyridine-2-carboxylic acid]",0.641,–,2.2

# Stronger by IC50 (MOLT-4 cells), values ahead:
IC50 (MOLT-4 cells) [nM],IC50 (H146 cells) [µM],Ki [1] [pM],Structure (SMILES)
0.265,–,1.8,"Cc1c(Nc2nc3ccccc3s2)nnc2c1CCCN2c1ccc(-c2cnn(CC34CC5(C)CC(C)(C3)CC(OCCN3CCCCCC3)(C5)C4)c2C)c(C(=O)O)n1 [Example 145, 3-[1-[[3-[2-(azepan-1-yl)ethoxy]-5,7-dimethyl-1-adamantyl]methyl]-5-methyl-pyrazol-4-yl]-6-[3-(1,3-benzothiazol-2-ylamino)-4-methyl-6,7-dihydro-5H-pyrido[2,3-c]pyridazin-8-yl]pyridine-2-carboxylic acid]"
0.247,–,3.2,"Cc1c(Nc2nc3ccccc3s2)nnc2c1CCCN2c1ccc(-c2cnn(CC34CC5(C)CC(C)(C3)CC(OCCN3CCN(C(C)C)CC3)(C5)C4)c2C)c(C(=O)O)n1 [Example 146, 6-[3-(1,3-benzothiazol-2-ylamino)-4-methyl-6,7-dihydro-5H-pyrido[2,3-c]pyridazin-8-yl]-3-[1-[[3-[2-(4-isopropylpiperazin-1-yl)ethoxy]-5,7-dimethyl-1-adamantyl]methyl]-5-methyl-pyrazol-4-yl]pyridine-2-carboxylic acid]"
0.277,–,5.9,"Cc1c(Nc2nc3ccccc3s2)nnc2c1CCCN2c1nc(C(=O)O)c(CCCOc2ccc(C#CCN(C)CC[C@H](O)CO)cc2F)s1 [Example 148, 2-[3-(1,3-benzothiazol-2-ylamino)-4-methyl-6,7-dihydro-5H-pyrido[2,3-c]pyridazin-8-yl]-5-[3-[4-[3-[[(3S)-3,4-dihydroxybutyl]-methyl-amino]prop-1-ynyl]-2-fluoro-phenoxy]propyl]thiazole-4-carboxylic acid]"
0.219,–,1.5,"Cc1c(Nc2nc3ccccc3s2)nnc2c1CCCN2c1ccc(-c2cnn(CC34CC5(C)CC(C)(C3)CC(OCCN(C)CCO)(C5)C4)c2C)c(C(=O)O)n1 [Example 150, 6-[3-(1,3-benzothiazol-2-ylamino)-4-methyl-6,7-dihydro-5H-pyrido[2,3-c]pyridazin-8-yl]-3-[1-[[3-[2-[2-hydroxyethyl(methyl)amino]ethoxy]-5,7-dimethyl-1-adamantyl]methyl]-5-methyl-pyrazol-4-yl]pyridine-2-carboxylic acid]"
0.0824,–,1.5,"COCCCN(C)CCOC12CC3(C)CC(C)(CC(Cn4ncc(-c5ccc(N6CCCc7c6nnc(Nc6nc8ccccc8s6)c7C)nc5C(=O)O)c4C)(C3)C1)C2 [Example 151, 6-[3-(1,3-benzothiazol-2-ylamino)-4-methyl-6,7-dihydro-5H-pyrido[2,3-c]pyridazin-8-yl]-3-[1-[[3-[2-[3-methoxypropyl(methyl)amino]ethoxy]-5,7-dimethyl-1-adamantyl]methyl]-5-methyl-pyrazol-4-yl]pyridine-2-carboxylic acid]"
0.229,–,1.2,"Cc1c(Nc2nc3ccccc3s2)nnc2c1CCCN2c1ccc(-c2cnn(CC34CC5(C)CC(C)(C3)CC(OCCN(C)CCCCO)(C5)C4)c2C)c(C(=O)O)n1 [Example 153, 6-[3-(1,3-benzothiazol-2-ylamino)-4-methyl-6,7-dihydro-5H-pyrido[2,3-c]pyridazin-8-yl]-3-[1-[[3-[2-[4-hydroxybutyl(methyl)amino]ethoxy]-5,7-dimethyl-1-adamantyl]methyl]-5-methyl-pyrazol-4-yl]pyridine-2-carboxylic acid]"
0.0532,–,1.9,"Cc1c(Nc2nc3ccccc3s2)nnc2c1CCCN2c1ccc(-c2cnn(CC34CC5(C)CC(C)(CC(CCCN(C)C)(C5)C3)C4)c2C)c(C(=O)O)n1 [Example 167, 6-[3-(1,3-benzothiazol-2-ylamino)-4-methyl-6,7-dihydro-5H-pyrido[2,3-c]pyridazin-8-yl]-3-[1-[[3-[3-(dimethylamino)propyl]-5,7-dimethyl-1-adamantyl]methyl]-5-methyl-pyrazol-4-yl]pyridine-2-carboxylic acid]"
0.0916,–,2.9,"Cc1ccc2sc(Nc3nnc4c(c3C)CCCN4c3ccc(-c4cnn(CC56CC7(C)CC(C)(C5)CC(OCCN5CCCC5)(C7)C6)c4C)c(C(=O)O)n3)nc2c1 [Example 179, 3-[1-[[3,5-dimethyl-7-(2-pyrrolidin-1-ylethoxy)-1-adamantyl]methyl]-5-methyl-pyrazol-4-yl]-6-[4-methyl-3-[(5-methyl-1,3-benzothiazol-2-yl)amino]-6,7-dihydro-5H-pyrido[2,3-c]pyridazin-8-yl]pyridine-2-carboxylic acid]"
